Converted amounts (≈) assume the structure as drawn. Read-outs that look alike come from different tables or passages of the source. Where a SMILES comes first, the peptide text is derived from it.
Assays:
Assay type in all cases: cell-based
[1] = test system: Staphylococcus aureus clinical isolate – animal, methicillin-resistant (MRSA); conditions: clinical isolate – animal, methicillin-resistant
Experimental: (§1) Antimicrobial testing of 78 cathelicidin MPs was performed in two phases as outlined in Figure 1 . In phase I, 40 peptides (27 extant and 13 ancestral) were selected for testing based on rank (outlined above) and similarity to published marsupial cathelicidins with known antimicrobial activity ([33], [41]–[43]). These peptides were tested against nine bacteria (Staphylococcus aureus ATCC 29213 and clinical isolate, Escherichia coli ATCC 25922 and clinical isolate, Pseudomonas aeruginosa ATCC 27853 and clinical isolate, Streptococcus agalactiae ATCC 12386 and clinical isolate, Streptococcus pneumoniae ATCC 49619) and three fungi (Candida krusei ATCC 6258, Candida parapsilosis ATCC 22019, and Candida albicans clinical isolate). Details regarding these strains are available in Supplementary Table 4 . The antimicrobial activity of cathelicidins was determined as the minimum inhibitory concentration (MIC), which was the lowest concentration of cathelicidin that prevented visible bacterial or fungal growth, relative to the negative control. […] Minimum bactericidal concentration (MBC) and/or minimum fungicidal concentration (MFC) was conducted to determine microbicidal versus static action. Activity against S. aureus ATCC, E. coli ATCC, and Pseudomonas aeruginosa ATCC 27853 was examined in the presence of divalent cations to determine the impact of inhibitors.
(§2) Antimicrobial activity was determined using a broth microdilution susceptibility assay in 96 well polypropylene plates according to Clinical Laboratory Standards Institute guidelines M07-A and M26A as described previously ([33], [42], [43]). The bacterial and fungal isolates from humans and animals used in this study are outlined in Supplementary Table 4 . Only yeasts were included in the panel of fungi as they have been used in the susceptibility testing of eutherian ([3], [81]–[83]) and other marsupial cathelicidins previously ([33], [42], [43]). Cathelicidin mature peptides were solubilized in DMSO and serially diluted in duplicate from 128-0.25μg/mL in a final volume of 100µL. For bacteria, cathelicidins were diluted in Mueller Hinton Broth (MHB) with or without 10% lysed horse blood, and with (MH II B) or without (MHB) calcium and magnesium cations. For fungi, cathelicidins were diluted in Roswell Park Memorial Institute medium (RPMI)-1640 MOPS. Ampicillin or tetracycline were included as a positive control for Gram-positive and -negative bacteria respectively, while amphotericin B was used for fungi. A media-only negative control and growth control (no cathelicidin) were also included on each plate. Bacteria were sub-cultured on Muller Hinton agar (MHA) or sheep blood agar (BA), and fungi on Sabouraud dextrose agar (SAB), 20–24 hours prior to the test. Colonies were suspended in saline, the concentration adjusted to a 0.5 McFarland standard, and then diluted in media to a concentration of 1.0 x 10^6 cells/mL. Then, 100μL was added to each well of the cathelicidin dilution plate, giving a final inoculum density of 5 x 10^5 CFU/mL and cathelicidin concentration of 64-0.125μg/mL. Colony counts were performed on MHA/BA/SAB to confirm inoculum density. All plates were incubated at 35°C for 20–24 hours, depending on the strain.
(§3) Colonies were counted and compared to the colony count of the starting inoculum.

[2] = test system: Staphylococcus aureus clinical isolate – animal, penicillin-resistant (PRSA); conditions: clinical isolate – animal, penicillin-resistant (PRSA)
Experimental: as §1, §2, §3

[3] = test system: Candida parapsilosis ATCC 22019; assay: microbe, parasite or virus in culture; conditions: ATCC 22019
Summary of the method: (§4)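 MIC defined as lowest peptide level preventing visible growth after 20–24 h at 35°C. Candida tested in RPMI-1640 MOPS; bacteria in Mueller Hinton broth, optionally with 10% lysed horse blood and/or divalent cations. Final peptide range 64-0.125 μg/mL, starting inoculum 5 x 10^5 CFU/mL, per CLSI M07-A/M26A.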

[4] = test system: Streptococcus agalactiae ATCC 12386; assay: microbe, parasite or virus in culture; conditions: ATCC 12386; read-out: MIC S. agalactiae ATCC
Summary of the method: as §4

Candida krusei ATCC 6258 = assay: microbe, parasite or virus in culture; conditions: ATCC 6258
Summary of the method: as §4

[5] = test system: Streptococcus pneumoniae ATCC 49619; assay: microbe, parasite or virus in culture; conditions: ATCC 49619; read-out: MIC S. pneumoniae ATCC
Summary of the method: as §4

[6] = test system: Candida albicans Clinical isolate - human; assay: microbe, parasite or virus in culture; conditions: Clinical isolate - human
Summary of the method: as §4

[7] = test system: Streptococcus agalactiae Clinical isolate - animal; assay: microbe, parasite or virus in culture; conditions: clinical isolate - animal
Summary of the method: as §4

[8] = test system: Escherichia coli ATCC 25922; assay: microbe, parasite or virus in culture; conditions: ATCC 25922
Summary of the method: (§5)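 Bacteria at a final 5 x 10^5 CFU/mL were incubated 20–24 h at 35 °C with DMSO-solubilized peptides serially diluted to 64–0.125 μg/mL in Mueller Hinton broth (± lysed horse blood, ± divalent cations). MIC read as no visible growth; bactericidal action from colony counts compared with the inoculum.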

[9] = test system: Escherichia coli clinical isolate - animal; assay: microbe, parasite or virus in culture; conditions: clinical isolate - animal
Summary of the method: as §5

[10] = test system: Staphylococcus aureus ATCC 29213; assay: microbe, parasite or virus in culture; conditions: ATCC 29213
Summary of the method: as §5

[11] = test system: Pseudomonas aeruginosa ATCC 27853; assay: microbe, parasite or virus in culture; conditions: ATCC 27853; read-out: MIC P. aeruginosa ATCC
Summary of the method: as §5

[12] = test system: Pseudomonas aeruginosa clinical isolate - animal; assay: microbe, parasite or virus in culture; conditions: clinical isolate - animal
Summary of the method: as §5

CC[C@H](C)[C@H](NC(=O)CNC(=O)[C@H](C)NC(=O)[C@H](CC(C)C)NC(=O)[C@@H](NC(=O)[C@H](CCCNC(=N)N)NC(=O)[C@@H](NC(=O)[C@H](CCCNC(=N)N)NC(=O)[C@@H](N)CCCCN)[C@@H](C)CC)[C@@H](C)CC)C(=O)N[C@@H](Cc1c[nH]c2ccccc12)C(=O)N[C@@H](CC(=O)O)C(=O)N[C@@H](CCCNC(=N)N)C(=O)N[C@@H](CC(C)C)C(=O)N[C@@H](CCCCN)C(=O)N[C@@H](CC(N)=O)C(=O)N[C@@H](CC(C)C)C(=O)NCC(=O)N[C@@H](CC(N)=O)C(=O)N[C@@H](CCCNC(=N)N)C(=O)N[C@H](C(=O)N[C@@H](CCCCN)C(=O)N[C@@H](CC(N)=O)C(=O)N[C@@H](CCCNC(=N)N)C(=O)N[C@@H](CC(C)C)C(=O)N[C@@H](CCCNC(=N)N)C(=O)N[C@@H](CC(=O)O)C(=O)N[C@@H](Cc1ccccc1)C(=O)N[C@@H](Cc1ccccc1)C(=O)N[C@@H](CO)C(=O)O)[C@@H](C)CC [AnstCath5] (H-KRIRILAGIWDRLKNLGNRIKNRLRDFFS-OH)
MBC MRSA [1]: 8.9 µM (≈ 31.8 µg/mL) | MIC MRSA [1]: 4.4 µM (≈ 15.7 µg/mL) | MBC PRSA [2]: 4.4 µM (≈ 15.7 µg/mL) | MIC PRSA [2]: 4.4 µM (≈ 15.7 µg/mL) | MFC C. parapsilosis ATCC [3]: > 27.1 µM | MIC ([3]; read-out: MIC C. parapsilosis ATCC): 13.5 µM (≈ 48.2 µg/mL) | MIC [4]: >17.9 µM | MFC C. krusei ATCC (Candida krusei ATCC 6258): 13.5 µM (≈ 48.2 µg/mL) | MIC C. krusei ATCC (Candida krusei ATCC 6258): 13.5 µM (≈ 48.2 µg/mL) | MIC [5]: >17.9 µM | MFC C. albicans [6]: > 27.1 µM | MIC C. albicans [6]: 27.1 µM (≈ 96.8 µg/mL) | MBC S. agalactiae [7]: 8.9 µM (≈ 31.8 µg/mL) | MIC S. agalactiae [7]: 8.9 µM (≈ 31.8 µg/mL) | MBC E. coli ATCC [8]: 8.9 µM (≈ 31.8 µg/mL) | MIC ([8]; read-out: MIC E. coli ATCC): 4.4 µM (≈ 15.7 µg/mL) | MIC ([8]; read-out: MIC in the presence of cations E. coli ATCC): 4.4 µM | MBC E. coli [9]: 17.9 µM (≈ 63.9 µg/mL) | MIC [9]: 8.9 µM (≈ 31.8 µg/mL) | MIC in the presence of cations E. coli [9]: 8.9 µM | MBC S. aureus ATCC [10]: 8.9 µM (≈ 31.8 µg/mL) | MIC ([10]; read-out: MIC S. aureus ATCC): 4.4 µM (≈ 15.7 µg/mL) | MIC ([10]; read-out: MIC in the presence of cations S. aureus ATCC): 4.4 µM | MIC [11]: >17.9 µM | MBC P. aeruginosa [12]: 17.9 µM (≈ 63.9 µg/mL) | MIC ([12]; read-out: MIC P. aeruginosa): 8.9 µM (≈ 31.8 µg/mL) | MIC ([12]; read-out: MIC in the presence of cations P. aeruginosa): 17.9 µM

From publication PMC12006171, “Marsupial cathelicidins: characterization, antimicrobial activity and evolution in this unique mammalian lineage” (Frontiers in Immunology, 2025)
